Measured values: patent publication US20230414626A1, “INDUCTION OF FERROPTOSIS FOR CANCER THERAPY” (Memorial Sloan Kettering Cancer Center, priority 2020, published 2023)

Experiments:
BT474 cells = test: Measurement of lipid peroxidation (BODIPY C11, flow cytometry); assay type: cell-based, human; conditions: with RSL3
Description: (§1) FIG. 2 A-E. mTORC1, instead of mTORC2, suppresses ferroptosis. (A) MDA-MB-453 and BT474 were treated with CCI-779 (0.5 μM), RSL3 (1 μM for MDA-MB-453 cells and 0.5 μM for BT474 cells), and Fer-1 (1 μM) as indicated. (B) Cells were seeded in 6-well plate, 4×10^5 cells per well and incubated overnight. MDA-MB-453 and BT474 cells were treated as indicated. CCI-779, 0.5 μM; RSL3, 1 μM for MDA-MB-453 cells and 0.5 μM for BT474 cells; Fer-1, 1 μM. Cells were stained with 5 μM C1I-BODIPY followed by flow cytometry after 8 h-treatment. (C) 3D spheroids were treated as indicated. CCI-779, 0.5 μM; RSL3, 0.5 μM; Fer-1, 1 μM. Top panel, dead cells were stained by SYTOX Green (scale bar, 100 μm). Bottom panel, cell viability was assayed by measuring cellular ATP levels. (D) Cells expressing shRNAs targeting RPTOR or RICTOR were treated as indicated. CCI-779, 0.5 μM; RSL3, 0.5 μM; Fer-1, 1 μM. (E) Lipid peroxidation of samples as in panel D were measured.
(§2) FIG. 7 A-J. PI3K-AKT-mTOR signaling regulates ferroptosis sensitivity. (A) Cells were treated as indicated. GDC-0941, 2 μM; MK-2206, 2 μM; RSL3, 1 μM; Fer-1, 1 μM. Lipid peroxidation was measured. (B) Cells were treated with indicated conditions. Torin, 1 μM; RSL3, 1 μM for MDA-MB-453 cells and 0.5 μM for BT474 cells; Fer-1, 1 μM. Cell death was measured. (C) Cells were treated with indicated conditions. RSL3, 10 μM for MCF cells and PC-3 cells, 5 μM for T47D cells, 1 μM for HepG2 cells; Torin, 1 μM; CCI-779, 0.5 μM. (D) Cells were treated as indicated. CCI-779, 0.5 μM; Torin, 1 μM; Fer-1, 1 μM. Cell death was staining by propidium iodide (PI) (red) or Sytox Green (green) (scale bar, 100 μm). (E-F) 3D spheroids for MDA-MB-453 cells and MCF7 cells were treated as indicated. CCI-779, 0.5 μM; RSL3, 1 μM for MDA-MB-453 cells and 5 μM for MCF7 cells; Fer-1, 1 μM. Top panels, cell death staining (scale bar, 100 m). Bottom panels, cell viability. (G) MDA-MB-453 cells were treated as indicated for 24 h. RSL3, 1 μM; CCI-779, 0.5 μM; GDC-0941, 2 μM; MK-2206, 2 μM; Dabrafenib, 2 μM; SCH772984, 2 μM; Fer-1, 1 μM. (H) Western blot was performed to detect RPTOR and RICTOR knockdown efficiency. (I) HT1080 cells and MDA-MB-231 cells (both with wild-type PI3K-AKT-mTOR pathway) were treated as indicated. RSL3, 0.1 μM for HT1080 and 0.25 μM for MDA-MB-231; Torin, 1 μM; CCI-779, 0.5 μM; Fer-1, 1 μM. Cell death was measured. (J) Two lines of PI3K-AKT-mTOR pathway wild-type cells (HT1080 and MDA-MB-231) and two lines of cells harboring activating mutation of the pathway (BT474 and MDA-MB-453) were treated as indicated. RSL3, 0.25 μM; Fer-1, 1 μM. Western blot was performed to detect the level of pT389 S6K.
(§3) FIG. 11 A-H. SCD1 protects cells against ferroptosis. (A) Cells were pretreated cells with 5 μM CAY10566 overnight. Cells were treated as indicated. RSL3, 1 μM for MDA-MB-453 and 0.5 μM for BT474; Fer-1, 1 μM; CAY10566, 5 μM; Fer-1, 1 μM. (B) Western blot, measuring the SCD knockout efficiency in BT474, MDA-MB-453 and MCF7 cells. (C) MCF cells (sgCtrl, sgSCD #1 and sgSCD #2) were treated as indicated. RSL3, 5 μM; Fer-1, 1 μM. (D) Cells were treated as indicated. RSL3, 1 μM for MDA-MB-453 cells and 0.5 μM for BT474 cells; Fer-1, 1 μM. (E) Cells were treated as indicated. RSL3, 1 μM for MDA-MB-453 cells and 0.5 μM for BT474 cells; Fer-1, 1 μM; CCI-779, 0.5 μM; GDC-0941, 2 μM; MK-2206, 2 μM. (F) SCD1 was overexpressed in BT474 cells. Cells were treated as indicated. RSL3, 0.5 μM; CCI-779, 0.5 μM. Lipid peroxidation was measured. (G) SCD1 was overexpressed in A549 cells and determined by western blot. Cells were treated as indicated. RSL3, 0.25 μM; CCI-779, 0.5 μM. Lipid peroxidation and cell death were measured 6 h and 24 h after treatment, respectively. (H) SCD1 was overexpressed in BT474 cells harboring SREBF1 knockout. SCD1 and SREBP1 level were determined by western blot. Cells were treated as indicated. RSL3, 0.5 μM; CCI-779, 0.5 μM; Fer-1, 1 μM.
(§4) Lipid peroxidation was analyzed by flow cytometry. […]

MDA-MB-453 cells = test: as above; assay type: cell-based, human; conditions: with RSL3
Description: as §1, §2, §3, §4

Row | Compound | sensitization to lipid peroxidation (BT474 cells) | sensitization to lipid peroxidation (MDA-MB-453 cells)
1 | Cc1nnc(-c2ccc(N3CCC(Oc4cc(F)ccc4Cl)CC3)nn2)o1 [CAY10566] | sensitized the effect of RSL3 | sensitized the effect of RSL3
2 | CO[C@H]1C[C@@H]2CC[C@@H](C)[C@@](O)(O2)C(=O)C(=O)N2CCCC[C@H]2C(=O)O[C@H]([C@H](C)C[C@@H]2CC[C@@H](OC(=O)C(C)(CO)CO)[C@H](OC)C2)CC(=O)[C@H](C)/C=C(\C)[C@@H](O)[C@@H](OC)C(=O)[C@H](C)C[C@H](C)/C=C/C=C/C=C/1C [CCI-779, Temsirolimus] | sensitize | sensitize
3 | CCCc1cc(-c2nc(-c3ccc(C)cc3)cs2)ccn1 [Fatostatin A] | sensitized | sensitized
4 | CS(=O)(=O)N1CCN(Cc2cc3nc(-c4cccc5[nH]ncc45)nc(N4CCOCC4)c3s2)CC1 [GDC-0941] | sensitized | sensitized
5 | NC1(c2ccc(-c3nc4ccn5c(=O)[nH]nc5c4cc3-c3ccccc3)cc2)CCC1 [MK-2206] | sensitized | sensitized
